Tests used:
[1] = Kinetic thiol consumption assay with model thiol glutathione; type: physicochemical; parameters: Rate constant with glutathione (k(GSH)): unit not given here; settings: for Rate constant with glutathione (k(GSH)): 500 μM ligand, 5 μM thiol, phosphate buffer pH 8; for Rate constant with Glutathione: Protein: Glutathione, cysteine position NA, in h-1
How it was run: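 GSH 5 μM, degassed phosphate buffer pH 8, TCEP beads 2% v/v; acrylamide added; RT, 1 h; fluorescence ex/em 380/470 nm; normalized to DMSO/thiol control; k from first-order exponential decay fit.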

[2] = biological target: T1, Cdk2[C177A, F80C, K278C] (Homo sapiens, UniProt P24941, C177A/F80C/K278C); experiment: Kinetic thiol consumption assay with mutant Cdk2 as model thiol; type: binding; parameters: unit not given here; settings: 500 μM ligand, 5 μM thiol, phosphate buffer pH 8
T1 construct: poly-histidine; made in house; host or cells: E. coli
How it was run: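 Model thiol: His-tagged human Cdk2 C177A/F80C/K278C (two engineered surface cysteines), E. coli-expressed, 5 μM in degassed phosphate buffer pH 8 with immobilized TCEP beads (2% v/v). Fluorescence (ex/em 380/470 nm) followed over time at room temperature, normalized to DMSO/thiol control. First-order decay fit gives rate constants.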

[3] = biological target: T2, Cdk2(N272C) (C177A) (Homo sapiens, UniProt P24941, C177A/N272C); experiment: Kinetic thiol consumption assay with Cdk2 mutant N272C; type: binding; parameters: key to Rate enhancement, Cdk2 N272: rate constant with Cdk2 ÷ rate constant with model thiol (fold); settings: for Rate enhancement, Cdk2 N272: Cdk2 N272, additional mutation C177A; for Rate constant with Cdk2 N272C: Protein: Cdk2, cysteine position N272C, additional mutation C177A, in h^-1
T2 construct: poly-histidine; made in house; host or cells: E. coli
How it was run: (§1)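 5 μM thiol, degassed phosphate pH 8, 2% v/v immobilized TCEP beads; 1 h RT; fluorescence ex 380/em 470 nm; normalized vs DMSO/thiol-only; first-order exponential decay fit → rate constant; Cdk2 k / model-thiol k = rate enhancement per acrylamide.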

[4] = biological target: T3, Cdk2(T182C) (C177A) (Homo sapiens, UniProt P24941, C177A/T182C); experiment: Kinetic thiol consumption assay with Cdk2 mutant T182C; type: binding; parameters: key to Rate enhancement, Cdk2 T182C: rate constant with Cdk2 ÷ rate constant with model thiol (fold); settings: additional mutation C177A; for Rate constant with Cdk2 T182C: Protein: Cdk2, cysteine position T182C, in h^-1
T3 construct: poly-histidine; made in house; host or cells: E. coli
How it was run: as §1

[5] = biological target: T4, Cdk2(S276C) (C177A) (Homo sapiens, UniProt P24941, C177A/S276C); experiment: Kinetic thiol consumption assay with Cdk2 mutant S276C; type: binding; parameters: key to Rate enhancement, Cdk2 S276C: rate constant with Cdk2 ÷ rate constant with model thiol (fold); settings: additional mutation C177A; for Rate constant with Cdk2 S276C: Protein: Cdk2, cysteine position S276C, in h^-1
T4 construct: poly-histidine; made in house; host or cells: E. coli
How it was run: as §1

[6] = biological target: T5, Cdk2(R122C) (C177A) (Homo sapiens, UniProt P24941, C177A/R122C); experiment: Kinetic thiol consumption assay with Cdk2 mutant R122C; type: binding; parameters: key to Rate enhancement, Cdk2 R122C: rate constant with Cdk2 ÷ rate constant with model thiol (fold); settings: additional mutation C177A; for Rate constant with Cdk2 R122C: Protein: Cdk2, cysteine position R122C, in h-1
T5 construct: poly-histidine; made in house; host or cells: E. coli
How it was run: as §1

[7] = biological target: T6, human cyclin-dependent kinase 2 (Cdk2) (Homo sapiens, UniProt P24941); experiment: Kinetic thiol consumption assay with wild type Cdk2 (C177); type: binding; parameters: key to Rate enhancement, Cdk2 WT: k(Cdk2) divided by k(model thiol); Rate constant with Cdk2 (k(Cdk2)): unit not given here; settings: for Rate constant with Cdk2 (k(Cdk2)): 500 μM ligand, 5 μM thiol, phosphate buffer pH 8; for Rate enhancement, Cdk2 WT: no additional mutations; for Rate constant with Cdk2 WT: Protein: Cdk2, cysteine position WT, in h^-1; for k(Cdk2)/k(Cdk2_mut) rate enhancement: model thiol Cdk2[C177A, F80C, K278C]; for k(Cdk2)/k(GSH) rate enhancement: model thiol glutathione
T6 construct: poly-histidine; made in house; host or cells: E. coli
How it was run: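 Thiol 5 μM (Cdk2 or model thiol), degassed phosphate buffer pH 8, TCEP beads 2% v/v. Plates incubated 1 h RT, ex/em 380/470 nm. First-order decay fit → rate constant; ratio Cdk2/model thiol = rate enhancement.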

[8] = biological target: T7, Cdk2(S181C) (C177A) (Homo sapiens, UniProt P24941, C177A/S181C); experiment: Kinetic thiol consumption assay with Cdk2 mutant S181C; type: binding; parameters: key to Rate enhancement, Cdk2 S181C: rate constant with Cdk2 ÷ rate constant with model thiol (fold); settings: additional mutation C177A; for Rate constant with Cdk2 S181C: Protein: Cdk2, cysteine position S181C, in h^-1
T7 construct: poly-histidine; made in house; host or cells: E. coli
How it was run: as §1

[9] = biological target: T8, Cdk2(H71C) (C177A) (Homo sapiens, UniProt P24941, C177A/H71C); experiment: Kinetic thiol consumption assay with Cdk2 mutant H71C; type: binding; parameters: key to Rate enhancement, Cdk2 H71C: rate constant with Cdk2 ÷ rate constant with model thiol (fold); settings: additional mutation C177A; for Rate constant with Cdk2 H71C: Protein: Cdk2, cysteine position H71C, in h^-1
T8 construct: poly-histidine; made in house; host or cells: E. coli
How it was run: as §1

[10] = biological target: T9, Cdk2(C177A, F80C) (Homo sapiens, UniProt P24941, C177A/F80C); experiment: Kinetic thiol consumption assay with Cdk2 mutant F80C, incl. kobs versus concentration (Kd, k2); type: binding; parameters: key to Rate enhancement, Cdk2 F80C: Cdk2 rate constant divided by model-thiol rate constant; settings: additional mutation C177A; for Rate constant with Cdk2 F80C: Protein: Cdk2, cysteine position F80C, in h^-1
T9 construct: poly-histidine; made in house; host or cells: E. coli
How it was run: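 His-tagged Cdk2(C177A/F80C) from E. coli or model thiol, 5 μM in degassed phosphate buffer pH 8 with TCEP beads, reacted with acrylamide ligands; fluorescence (ex/em 380/470 nm) normalized to DMSO control and fitted to first-order decay for kobs. Kd and k2 obtained from hyperbolic fit of kobs versus ligand concentration.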

Compound	Rate constant with Cdk2[C177A, F80C, K278C] (k(Cdk2_mut)) [2]	Rate enhancement, Cdk2 N272 [3]	Rate constant with Cdk2 N272C [3]	Rate enhancement, Cdk2 T182C [4]	Rate constant with Cdk2 T182C [4]	Rate enhancement, Cdk2 S276C [5]	Rate constant with Cdk2 S276C [5]	Rate enhancement, Cdk2 R122C [6]	Rate constant with Cdk2 R122C [6]	Rate constant with Cdk2 (k(Cdk2)) [7]	Rate enhancement, Cdk2 WT [7]	Rate constant with Cdk2 WT [7]	k(Cdk2)/k(Cdk2_mut) rate enhancement [7]	k(Cdk2)/k(GSH) rate enhancement [7]	Rate enhancement, Cdk2 S181C [8]	Rate constant with Cdk2 S181C [8]	Rate enhancement, Cdk2 H71C [9]	Rate enhancement, Cdk2 F80C [10]	Rate constant with glutathione (k(GSH)) [1]	Rate constant with Glutathione [1]	also measured
C=CC(=O)Nc1ccc(C23CC4CC(CC(O)(C4)C2)C3)cc1 [CA-194]	0.01393	0.2125	0.0009551	10.72	0.04819	0.7641	0.003434	0.7287	0.003275	0.00505	1.123	0.005049	0.3625	1.651	0.6985	0.003139	0	0.9911	0.00306	0.004494	Rate constant with Cdk2 F80C [10]: 0.004454
C=CC(=O)N(CCCN1CCOCC1)Cc1ccncc1 [CA-192]	0.00447	0.3716	0.004987	0.4571	0.006134	0.08092	0.001086	0.136	0.001825	0.00341	0.4352	0.00584	0.7625	0.5048	0.1475	0.00198	0.218	0.1157	0.00676	0.01342	Rate constant with Cdk2 H71C [9]: 0.002926; Rate constant with Cdk2 F80C [10]: 0.001553
C=CC(=O)NC1(C2CC2)CC1 [CA-047]	0.00346	0.1665	0.002048	1.063	0.01308	0.5464	0.006721	0.2628	0.003233	0.0056	0.4553	0.0056	1.617	0.7407	0.2766	0.003402	0	0.1307	0.00756	0.0123	Rate constant with Cdk2 F80C [10]: 0.001607
C=CC(=O)N1CCN(c2cccc3cccnc23)CC1 [EL-1156]	0.02157	0.3397	0.005976	4.097	0.07206	1.35	0.02375	0.6879	0.0121	0.01873	1.065	0.01873	0.8683	1.062	1	0.01759	0.3885	1.015	0.01763	0.01759	Rate constant with Cdk2 H71C [9]: 0.006834; Rate constant with Cdk2 F80C [10]: 0.01786

Now from value to compound, other results behind:

Rate constant with Cdk2[C177A, F80C, K278C] (k(Cdk2_mut)) [2]	Rate enhancement, Cdk2 N272 [3]	Rate constant with Cdk2 N272C [3]	Rate enhancement, Cdk2 T182C [4]	Rate constant with Cdk2 T182C [4]	Rate enhancement, Cdk2 S276C [5]	Rate constant with Cdk2 S276C [5]	Rate enhancement, Cdk2 R122C [6]	Rate constant with Cdk2 R122C [6]	Rate constant with Cdk2 (k(Cdk2)) [7]	Rate enhancement, Cdk2 WT [7]	Rate constant with Cdk2 WT [7]	k(Cdk2)/k(Cdk2_mut) rate enhancement [7]	k(Cdk2)/k(GSH) rate enhancement [7]	Rate enhancement, Cdk2 S181C [8]	Rate constant with Cdk2 S181C [8]	Rate enhancement, Cdk2 H71C [9]	Rate enhancement, Cdk2 F80C [10]	Compound	Rate constant with glutathione (k(GSH)) [1]	Rate constant with Glutathione [1]	also measured
0.02268	0.3071	0.006229	12.86	0.2609	3.68	0.07463	0.1319	0.002674	0.03086	1.522	0.03086	1.361	1.519	0.4029	0.00817	0.1797	9.635	C=CC(=O)Nc1nc2cc3c(cc2s1)OC(F)(F)O3 [CA-142]	0.02031	0.02028	Rate constant with Cdk2 H71C [9]: 0.003644; Rate constant with Cdk2 F80C [10]: 0.1954
0.00419	4.534	0.0128	0.474	0.001338	2.7205E−11	7.68E−14	0.9706	0.00274	0.00103	0.3642	0.001028	0.2449	0.3619	0.7428	0.002097	0	0	C=CC(=O)NC(C)c1cccc(N2CCOCC2)c1 (stereo not drawn) [EL-1153]	0.00284	0.002823	–
0.09413	2.885	0.07649	18.51	0.4908	1.606	0.04258	1.176	0.03118	0.0716	2.701	0.0716	0.7607	2.77	1.069	0.02834	1.636	2.139	C=CC(=O)Nc1cccc(-c2nnnn2C2CC2)c1 [CA-057]	0.02585	0.02651	Rate constant with Cdk2 H71C [9]: 0.04338; Rate constant with Cdk2 F80C [10]: 0.05671
